# Assay results taken from ChEMBL document CHEMBL5096223, “Design, synthesis, and biological evaluation of 2-arylamino-4-(piperidin-4-yloxy)pyrimidines as potent EGFRT790M/L858R inhibitors to treat non-small cell lung cancer” (Bioorg Med Chem, 2022).
# Activity calls are given as the source filed them. The rule behind the calls is not given here.
# Assays:
# [1] = biological target: Epidermal growth factor receptor (Homo sapiens, UniProt P00533, L858R/T790M); assay: Inhibition of N-terminal GST-tagged human recombinant EGFR T790M/L858R mutant (695 to end residues) expressed in baculovirus-infected Sf9 cells using poly (4:1 Glu,Tyr) peptide as substrate incubated for 60 mins in presence of ATP by ADP-Glo kinase assay
# [2] = biological target: Epidermal growth factor receptor (Homo sapiens, UniProt P00533); assay: Inhibition of N-terminal GST-tagged human recombinant wild type EGFR (695 to end residues) expressed in baculovirus-infected Sf9 cells using poly (4:1 Glu,Tyr) peptide as substrate incubated for 60 mins in presence of ATP by ADP-Glo kinase assay
# [3] = organism: Homo sapiens; assay: Selectivity index, ratio of IC50 for N-terminal GST-tagged human recombinant wild type EGFR (695 to end residues) expressed in baculovirus-infected Sf9 cells to IC50 for N-terminal GST-tagged human recombinant EGFR T790M/L858R mutant (695 to end residues) expressed in baculovirus-infected Sf9 cells; assay type: functional
# [4] = system: NCI-H1975; assay: Antiproliferative activity against human NCI-H1975 cells harboring EGFR T790M/L858R mutant assessed as reduction in cell growth incubated for 72 hrs by MTT assay; assay type: functional, cell-based; conditions: NCI-H1975, 72 h
# [5] = Cytotoxicity against human A-431 cells harboring wild type EGFR assessed as reduction in cell viability incubated for 72 hrs by MTT assay; assay type: toxicity, cell-based
# [6] = system: ASPC1; assay: Antiproliferative activity against human ASPC1 cells harboring KRAS G12D mutant assessed as reduction in cell growth incubated for 72 hrs by MTT assay; assay type: functional, cell-based; conditions: ASPC1, 72 h
# [7] = system: NCI-H358; assay: Antiproliferative activity against human NCI-H358 cells harboring KRAS G12C mutant assessed as reduction in cell growth incubated for 72 hrs by MTT assay; assay type: functional, cell-based; conditions: NCI-H358, 72 h
# [8] = system: SW-620; assay: Antiproliferative activity against human SW620 cells harboring KRAS G12V mutant assessed as reduction in cell growth incubated for 72 hrs by MTT assay; assay type: functional, cell-based; conditions: SW-620, 72 h
# [9] = Cytotoxicity against human HBE cells assessed as reduction in cell viability incubated for 72 hrs by MTT assay; assay type: toxicity, cell-based, Epithelial cell
# [10] = Cytotoxicity against human L02 cells assessed as reduction in cell viability incubated for 72 hrs by MTT assay; assay type: toxicity, cell-based
# [11] = Selectivity index, ratio of IC50 for cytotoxicity against human HBE cells to IC50 for cytotoxicity against human NCI-H1975 cells harboring EGFR T790M/L858R mutant; assay type: toxicity, cell-based; conditions: read-out: Ratio IC50
# [12] = Selectivity index, ratio of IC50 for cytotoxicity against human L02 cells to IC50 for cytotoxicity against human NCI-H1975 cells harboring EGFR T790M/L858R mutant; assay type: toxicity, cell-based; conditions: read-out: Ratio IC50
# [13] = system: NCI-H1975; assay: Inhibition of cell migration in human NCI-H1975 cells incubated for 24 to 48 hrs by scratch wound healing assay; assay type: functional, cell-based; conditions: dose 0.05-0.5 µM, time 24-48 hrs, DDE = dose-dependent effect
# [14] = system: NCI-H1975; assay: Inhibition of cell migration in human NCI-H1975 cells at 0.05 to 0.5 uM by scratch wound healing assay; assay type: functional, cell-based; conditions: dose 0.05-0.5 µM, time 24-48 hrs, TDE = time-dependent effect
# [15] = system: NCI-H1975; assay: Induction of morphological changes in human NCI-H1975 cells incubated for 48 hrs by AO/EB staining based fluorescence microscopic analysis; assay type: functional, cell-based; conditions: dose 1-10 µM, DDE = dose-dependent effect
# [16] = system: NCI-H1975; assay: Induction of apoptosis in human NCI-H1975 cells assessed as increase in number of nonviable apoptotic cells at 5 to 10 uM incubated for 48 hrs by AO/EB staining based fluorescence microscopic analysis; assay type: functional, cell-based; conditions: dose 5-10 µM
# [17] = system: NCI-H1975; assay: Induction of apoptosis in human NCI-H1975 cells assessed as chromatin shrinkage and accumulation in the nucleus at 1 to 10 uM incubated for 48 hrs by DAPI staining based fluorescence microscopic analysis; assay type: functional, cell-based; conditions: dose 1-10 µM
# [18] = system: NCI-H1975; assay: Induction of apoptosis in human NCI-H1975 cells assessed as nuclear fragmentation by measuring breakdown of nucleus into small membrane blebs with compacted DNA at 1 to 10 uM incubated for 48 hrs by DAPI staining based fluorescence microscopic analysis; assay type: functional, cell-based; conditions: dose 1-10 µM
# [19] = system: NCI-H1975; assay: Induction of apoptosis in human NCI-H1975 cells assessed as increase in died cells with few cells containing intact DNA at 10 uM incubated for 48 hrs by DAPI staining based fluorescence microscopic analysis; assay type: functional, cell-based
# Sequence of Epidermal growth factor receptor (Homo sapiens, UniProt P00533) (P00533 whole entry): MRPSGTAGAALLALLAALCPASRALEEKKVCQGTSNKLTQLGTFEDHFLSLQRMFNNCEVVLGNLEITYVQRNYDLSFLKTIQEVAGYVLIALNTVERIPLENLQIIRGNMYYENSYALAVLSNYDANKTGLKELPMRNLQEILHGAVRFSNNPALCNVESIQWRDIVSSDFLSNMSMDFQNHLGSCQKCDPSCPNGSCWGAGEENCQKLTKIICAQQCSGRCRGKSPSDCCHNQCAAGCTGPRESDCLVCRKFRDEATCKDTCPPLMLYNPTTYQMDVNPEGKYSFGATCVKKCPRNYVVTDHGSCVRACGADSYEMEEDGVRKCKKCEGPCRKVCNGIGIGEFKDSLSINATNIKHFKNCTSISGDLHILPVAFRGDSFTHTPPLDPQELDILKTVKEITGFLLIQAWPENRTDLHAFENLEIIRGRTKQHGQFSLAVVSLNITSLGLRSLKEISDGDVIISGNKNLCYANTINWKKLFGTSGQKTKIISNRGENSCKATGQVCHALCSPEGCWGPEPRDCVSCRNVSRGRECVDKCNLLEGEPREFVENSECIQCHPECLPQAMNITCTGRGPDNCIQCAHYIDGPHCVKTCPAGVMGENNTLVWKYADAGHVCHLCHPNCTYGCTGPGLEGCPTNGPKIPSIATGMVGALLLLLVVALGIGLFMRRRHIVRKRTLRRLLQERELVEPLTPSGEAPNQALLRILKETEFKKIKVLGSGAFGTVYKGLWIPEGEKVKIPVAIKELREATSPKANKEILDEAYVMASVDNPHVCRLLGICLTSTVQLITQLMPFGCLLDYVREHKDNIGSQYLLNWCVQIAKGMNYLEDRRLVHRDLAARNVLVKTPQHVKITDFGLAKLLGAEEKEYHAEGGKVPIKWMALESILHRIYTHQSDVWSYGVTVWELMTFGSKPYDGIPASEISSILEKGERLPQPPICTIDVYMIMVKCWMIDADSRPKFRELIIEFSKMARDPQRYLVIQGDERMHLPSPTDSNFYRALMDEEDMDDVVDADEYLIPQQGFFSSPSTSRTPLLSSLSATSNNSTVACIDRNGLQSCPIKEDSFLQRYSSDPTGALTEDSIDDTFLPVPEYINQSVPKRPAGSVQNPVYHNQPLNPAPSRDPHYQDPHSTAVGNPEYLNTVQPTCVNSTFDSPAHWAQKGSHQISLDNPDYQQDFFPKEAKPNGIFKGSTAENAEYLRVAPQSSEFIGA
# Sequence of Epidermal growth factor receptor (Homo sapiens, UniProt P00533, L858R/T790M) (P00533 25-1210 T790M/L858R limits assumed): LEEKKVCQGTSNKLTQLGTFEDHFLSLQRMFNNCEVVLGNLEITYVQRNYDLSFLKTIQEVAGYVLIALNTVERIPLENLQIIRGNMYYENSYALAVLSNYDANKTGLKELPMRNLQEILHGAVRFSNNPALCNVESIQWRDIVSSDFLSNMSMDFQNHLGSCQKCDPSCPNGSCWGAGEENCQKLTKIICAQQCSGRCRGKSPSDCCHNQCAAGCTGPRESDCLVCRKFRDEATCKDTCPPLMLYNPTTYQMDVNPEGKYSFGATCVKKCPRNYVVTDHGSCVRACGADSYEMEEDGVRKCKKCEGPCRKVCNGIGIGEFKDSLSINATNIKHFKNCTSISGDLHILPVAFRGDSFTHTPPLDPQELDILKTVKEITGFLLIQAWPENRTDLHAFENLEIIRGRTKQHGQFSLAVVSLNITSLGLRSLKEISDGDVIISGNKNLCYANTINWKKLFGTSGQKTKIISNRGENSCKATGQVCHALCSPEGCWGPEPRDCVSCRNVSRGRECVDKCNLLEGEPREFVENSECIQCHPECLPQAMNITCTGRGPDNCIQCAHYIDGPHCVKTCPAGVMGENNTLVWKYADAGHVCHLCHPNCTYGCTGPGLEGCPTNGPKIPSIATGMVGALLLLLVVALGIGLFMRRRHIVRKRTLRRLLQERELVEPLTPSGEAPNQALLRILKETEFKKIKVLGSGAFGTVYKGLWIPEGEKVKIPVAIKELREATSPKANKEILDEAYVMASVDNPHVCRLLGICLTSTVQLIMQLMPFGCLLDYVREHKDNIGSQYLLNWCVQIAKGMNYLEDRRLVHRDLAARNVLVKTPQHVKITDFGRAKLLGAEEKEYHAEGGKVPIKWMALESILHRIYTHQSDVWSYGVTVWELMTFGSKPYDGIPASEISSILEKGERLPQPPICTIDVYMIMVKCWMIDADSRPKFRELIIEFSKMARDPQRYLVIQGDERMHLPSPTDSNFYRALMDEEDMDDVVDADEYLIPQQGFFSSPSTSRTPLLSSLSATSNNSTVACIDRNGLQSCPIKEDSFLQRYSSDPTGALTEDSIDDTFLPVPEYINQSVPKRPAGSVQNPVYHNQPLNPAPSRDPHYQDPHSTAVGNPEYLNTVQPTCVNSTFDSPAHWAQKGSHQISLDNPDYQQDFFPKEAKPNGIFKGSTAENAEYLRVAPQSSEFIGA
SMILES,IC50 [1] [µM],IC50 [2] [µM],Ratio IC50 [3],IC50 [4] [µM],IC50 at 72 h [5] [µM],IC50 [6] [µM],IC50 [7] [µM],IC50 [8] [µM],IC50 at 72 h [9] [µM],IC50 at 72 h [10] [µM],selectivity ratio [11],selectivity ratio [12],inhibition [13],inhibition [14],Activity [15],Activity [16],Activity [17],Activity [18],Activity [19]
C=CC(=O)N1CCC(Oc2nc(Nc3ccn(C)n3)nc3ccsc23)CC1,0.126,0.224,1.78,16.7,> 20,< 0.2,20,> 20,> 20,16.7,,,,,,,,,
C=CC(=O)N1CCC(Oc2nc(Nc3ccc(N4CCN(C)CC4)c(F)c3)nc3ccsc23)CC1,,,,1.89,1.38,> 20,6.26,3.57,4.05,1.4,,,,,,,,,
C=CC(=O)N1CCC(Oc2nc(Nc3ccc(N4CCN(C)CC4)c(F)c3)nc3[nH]ccc23)CC1,0.0134,0.119,8.87,0.89,1.29,0.4,3.62,1.6,3.02,1.89,,,,,,,,,
C=CC(=O)N1CCC(Oc2nc(Nc3ccc(N4CCN(C)CC4)c(F)c3)ncc2Cl)CC1,,,,2.09,3.26,3.88,1.51,1.64,8.91,5.38,,,,,,,,,
C=CC(=O)N1CCC(Oc2nc(Nc3ccc(N4CCN(C(C)=O)CC4)cc3OC)nc3[nH]ccc23)CC1,0.0313,0.133,4.23,3.78,3.51,4.92,3.56,5.8,12.9,16.1,,,,,,,,,
C=CC(=O)N1CCC(Oc2nc(Nc3ccc(N4CCN(C)CC4)cc3)nc3[nH]ccc23)CC1,0.00568,0.0361,6.35,1.72,1.65,1.21,4.22,2.47,7.94,6.25,,,,,,,,,
C=CC(=O)N1CCC(Oc2nc(Nc3ccc(N4CCN(CCO)CC4)cc3)ncc2Cl)CC1,0.0421,0.124,2.94,1.53,2.01,2.74,4.66,0.3,16.1,4.47,,,,,,,,,
CCC(=O)N1CCC(Oc2nc(Nc3ccc(N4CCN(C)CC4)cc3)nc3ccsc23)CC1,0.356,0.268,,26.1,,,,,,,,,,,,,,,
C=CC(=O)N1CCC(Oc2nc(Nc3ccc(N4CCN(C)CC4)cc3)nc3ccsc23)CC1,0.0049,0.359,73.3,0.62,4.18,5.31,18.9,7.45,9.05,8.45,13,13,Dde,Tde,Dde,Active,Active,Active,Active
C=CC(=O)Nc1cc(Nc2nccc(-c3cn(C)c4ccccc34)n2)c(OC)cc1N(C)CCN(C)C [OSIMERTINIB],,,,,1.32,,,,,,,,,,,,,,
C=CC(=O)N1CCC(Oc2nc(Nc3cnn(C)c3)nc3ccsc23)CC1,0.135,0.196,1.45,2.31,4.77,0.71,17.6,6.2,> 20,8.92,,,,,,,,,
C=CC(=O)N1CCC(Oc2nc(Nc3ccc(N(C)CCN(C)C)cc3OC)nc3[nH]ccc23)CC1,0.0077,0.0593,7.7,4.14,16.7,5.13,5.62,7.84,> 20,19,,,,,,,,,
C=CC(=O)N1CCC(Oc2nc(Nc3ccc(N4CCN(C)CC4)cc3)ncc2Cl)CC1,,,,1.7,1.45,5.84,3.96,4.63,15,8.77,,,,,,,,,
C=CC(=O)N1CCC(Oc2nc(Nc3ccc(CN4CCC(CO)CC4)cc3)ncc2Cl)CC1,0.0123,0.18,14.6,1.07,1.84,2.18,16,1.99,5.86,2.12,,,,,,,,,
C=CC(=O)N1CCC(Oc2nc(Nc3ccc(N4CCN(C)CC4)cc3OC)nc3[nH]ccc23)CC1,0.0123,0.0368,2.99,4.36,2.71,7.04,9.86,9.88,> 20,18,,,,,,,,,
C=CC(=O)N1CCC(Oc2nc(Nc3ccc(N4CCOCC4)cc3OC)nc3ccsc23)CC1,0.00966,0.246,25.5,5.87,15.2,0.51,> 20,8.67,> 20,18.2,,,,,,,,,
C=CC(=O)N1CCC(Oc2nc(Nc3cnn(C)c3)nc3[nH]ccc23)CC1,0.204,0.387,1.9,0.93,3.99,1.15,3.07,2.36,> 20,10.2,,,,,,,,,
C=CC(=O)N1CCC(Oc2nc(Nc3ccc(N4CCN(C)CC4)cc3OC)nc3ccsc23)CC1,0.0142,0.247,17.4,1.67,2.07,0.65,7.4,7.33,18.6,1.97,,,,,,,,,
C=CC(=O)N1CCC(Oc2nc(Nc3ccc(N4CCOCC4)cc3)nc3ccsc23)CC1,0.00653,0.197,30.2,5.8,3.89,2.77,16.5,4.82,16.7,16.2,,,,,,,,,
C=CC(=O)N1CCC(Oc2nc(Nc3ccc(N4CCN(C(C)=O)CC4)cc3OC)nc3ccsc23)CC1,0.0202,0.0607,3,3.74,3.92,0.48,14.6,8.61,18.9,10.6,,,,,,,,,
